Measurements from patent publication US12225903B2, “Synergistic cleaning disinfectant solution with enhanced stability, and methods of using the same” (Diversey, Inc., priority 2019, dated 2025).
Like-named read-outs stand apart in the source and are kept apart here.

Key:
[1] = system: bacteria Staphylococcus aureus, Escherichia coli, and Lactobacillus brevis; assay: Amount of antimicrobial acid required to pass EN1276:2009 (antibacterial activity); assay type: cell-based; details: gluconic and salicylic acid used in combination
Text: To pass the EN1276 test method, a log reduction of greater than or equal to 5 must be achieved in five minutes.

[2] = system: fungus Aspergillus niger and yeast Saccharomyces cerevisiae; assay: Amount of antimicrobial acid required to pass EN1650:2008 (antifungal activity); assay type: cell-based; details: gluconic and salicylic acid used in combination
Text: To pass the EN 1650:2008 antimicrobial testing protocol, a log reduction of greater than or equal to 4 must be achieved in fifteen minutes.

[3] = in combination with gluconic acid

Compound | Concentration of Antimicrobial Acids required to pass ([1]; Clean, 4° C.) | Concentration of Antimicrobial Acids required to pass ([1]; Clean, 25° C.) | Concentration of Antimicrobial Acids required to pass ([1]; Dirty, 4° C.) | Concentration of Antimicrobial Acids required to pass ([1]; Dirty, 25° C.) | Concentration of Antimicrobial Acids required to pass ([2]; Clean, 4° C.) | Concentration of Antimicrobial Acids required to pass ([2]; Clean, 25° C.) | Concentration of Antimicrobial Acids required to pass ([2]; Dirty, 4° C.) | Concentration of Antimicrobial Acids required to pass ([2]; Dirty, 25° C.) | required amount of salicylic acid in the disclosed cleaning disinfectant solution [3] | required amount of salicylic acid in the disclosed cleaning disinfectant solution ([3]; to pass EN1276:2009 and EN1650:2008)
O=C(O)[C@H](O)[C@@H](O)[C@H](O)[C@H](O)CO [Gluconic Acid, Gluconic acid] | 300 ppm | 150 ppm | 300 ppm | 150 ppm | 750 ppm | 600 ppm | 750 ppm | 750 ppm |  | 
O=C(O)c1ccccc1O [Salicylic Acid, Salicylic acid] | 75 ppm | 37 ppm | 75 ppm | 37 ppm | 188 ppm | 150 ppm | 188 ppm | 188 ppm | less than 2 % by weight | less than 2 wt %
